Structures are written as SMILES. Active and inactive are the calls of the source. The rule behind the calls is not given here.

Data set [1] relates to CNE. Briefly: Antiproliferation activity against human CNE1 cells assessed as reduction in cell viability incubated for 48 hrs by MTT assay. Type of data set: functional, cell-based. For orientation: Formazan colour is commonly taken as a measure of viable cells.
In data set [2] the test system is C6661. Briefly: Antiproliferation activity against human C6661 cells assessed as reduction in cell viability incubated for 48 hrs by MTT assay. Type of data set: functional, cell-based.
Data set [3] relates to C6661. Briefly: Down regulation of CD44 protein expression level in human C6661 cells at 1 umol/l incubated for 48 hrs by Western-blot analysis relative to control. It is filed as functional, cell-based.
Data set [4] concerns C6661. In words: Antimetastatic activity in human C6661 cells assessed as cell invasion at 2 umol/l after 48 hrs by hematoxylin staining-based transwell invasion assay relative to control. Type of data set: functional.
For data set [5], the system named is C6661. In words: Antimetastatic activity in human C6661 cells assessed as cell invasion at 4 umol/l after 48 hrs by hematoxylin staining-based transwell invasion assay relative to control. It is filed as functional.
The subject of data set [6] is C6661. In words: Down regulation of RAGE protein expression level in human C6661 cells at 4 to 10 umol/l incubated for 48 hrs by Western-blot analysis relative to control. It is filed as functional, cell-based.
Data set [7] relates to C6661. Briefly: Antimetastatic activity in human C6661 cells assessed as cell invasion at 6 umol/l after 48 hrs by hematoxylin staining-based transwell invasion assay relative to control. It is filed as functional.
Data set [8] deals with C6661. Briefly: Induction of apoptosis in human C6661 cells assessed as increase in apoptotic cells population at 4 umol/l incubated for 48 hrs by annexin V-FITC / propidium iodide staining based flow cytometry. It is filed as functional. On the technique in general: A flow cytometer gives signals particle by particle.
For data set [9], the system named is C6661. Briefly: Induction of apoptosis in human C6661 cells assessed as increase in apoptotic cells population at 10 umol/l incubated for 48 hrs by annexin V-FITC / propidium iodide staining based flow cytometry. It is filed as functional.
The test system of data set [10] is C6661. In words: Down regulation of S100P protein expression level in human C6661 cells at 2 to 10 umol/l incubated for 48 hrs by Western-blot analysis relative to control. It is filed as functional, cell-based.
In data set [11] the test system is C6661. In words: Down regulation of MMP-2 protein expression level in human C6661 cells at 1 umol/l incubated for 48 hrs by Western-blot analysis relative to control. Type of data set: functional, cell-based.
Data set [12] deals with CNE. Briefly: Antiproliferation activity against human CNE1 cells assessed as reduction in cell viability at 2 to 10 umol/l incubated for 48 hrs by MTT assay relative to control. Type of data set: functional, cell-based.
Data set [13] deals with C6661. Briefly: Induction of apoptosis in human C6661 cells assessed as increase in apoptotic cells population at 6 umol/l incubated for 48 hrs by annexin V-FITC / propidium iodide staining based flow cytometry. It is filed as functional.
Data set [14] concerns C6661. In words: Down regulation of MMP-9 protein expression level in human C6661 cells at 4 to 10 umol/l incubated for 48 hrs by Western-blot analysis relative to control. Type of data set: functional, cell-based.
Data set [15] has as its system CNE. In words: Antiproliferation activity against human CNE1 cells assessed as reduction in cell viability at 10 umol/l incubated for 48 hrs by MTT assay. Type of data set: functional.
Data set [16] has as its system C6661. In words: Down regulation of MMP-9 protein expression level in human C6661 cells at 1 umol/l incubated for 48 hrs by Western-blot analysis relative to control. Type of data set: functional, cell-based.
Data set [17] concerns C6661. Briefly: Down regulation of S100P mRNA expression in human C6661 cells at 2 to 10 umol/l incubated for 48 hrs by RT-qPCR analysis relative to control. It is filed as functional, cell-based. Background: Real-time PCR tracks product formation cycle by cycle.
In data set [18] the test system is C6661. In words: Antiproliferation activity against human C6661 cells assessed as reduction in cell viability at 2 to 10 umol/l incubated for 48 hrs by MTT assay relative to control. Type of data set: functional, cell-based.
For data set [19], the system named is C6661. Briefly: Antimetastatic activity in human C6661 cells assessed as cell invasion at 10 umol/l after 48 hrs by hematoxylin staining-based transwell invasion assay relative to control. It is filed as functional.
For data set [20], the system named is C6661. Briefly: Down regulation of MMP-2 protein expression level in human C6661 cells at 4 to 10 umol/l incubated for 48 hrs by Western-blot analysis relative to control. It is filed as functional, cell-based.
Data set [21] deals with C6661. Briefly: Down regulation of EGFR protein expression level in human C6661 cells at 4 to 10 umol/l incubated for 48 hrs by Western-blot analysis relative to control. Type of data set: functional, cell-based.
The subject of data set [22] is C6661. Briefly: Induction of apoptosis in human C6661 cells assessed as increase in apoptotic cells population at 2 umol/l incubated for 48 hrs by annexin V-FITC / propidium iodide staining based flow cytometry. Type of data set: functional.
For data set [23], the system named is C6661. In words: Down regulation of CD44 protein expression level in human C6661 cells at 4 to 10 umol/l incubated for 48 hrs by Western-blot analysis relative to control. Type of data set: functional, cell-based.
Data set [24] has as its system CNE. In words: Antiproliferation activity against human CNE1 cells assessed as reduction in cell viability at 1 umol/l incubated for 48 hrs by MTT assay. Type of data set: functional, cell-based.
The test system of data set [25] is C6661. In words: Induction of apoptosis in human C6661 cells assessed as enhanced early apoptotic cells population at 1 to 10 umol/l incubated for 48 hrs by annexin V-FITC / propidium iodide staining based flow cytometry. It is filed as functional.
Data set [26] has as its system C6661. Briefly: Antimetastatic activity in human C6661 cells assessed as cell invasion at 1 umol/l after 48 hrs by hematoxylin staining-based transwell invasion assay relative to control. It is filed as functional.
Data set [27] is described as follows: Cytotoxicity against human NP69 cell assessed as reduction in cell viability at 2 to 10 umol/l incubated for 48 hrs by MTT assay.
In data set [28] the test system is C6661. In words: Antimetastatic activity in human C6661 cells assessed as reduction in cell invasion after 48 hrs by hematoxylin staining-based transwell invasion assay. It is filed as functional.
Data set [29] deals with C6661. Briefly: Down regulation of RAGE protein expression level in human C6661 cells at 1 umol/l incubated for 48 hrs by Western-blot analysis relative to control. Type of data set: functional, cell-based.
Data set [30] concerns C6661. Briefly: Antiproliferation activity against human C6661 cells assessed as reduction in cell viability at 1 umol/l incubated for 48 hrs by MTT assay. Type of data set: functional, cell-based.
Data set [31] deals with C6661. Briefly: Down regulation of EGFR protein expression level in human C6661 cells at 1 umol/l incubated for 48 hrs by Western-blot analysis relative to control. It is filed as functional, cell-based.
The subject of data set [32] is C6661. In words: Antiproliferation activity against human C6661 cells assessed as reduction in cell viability at 10 umol/l incubated for 48 hrs by MTT assay relative to control. Type of data set: functional.

For `Cc1ncccc1SC=C1C(=O)CCCCC1=O`, the result in the data set with CNE [1] and in the data set on C6661 [2] was Active.
Regarding `O=C1CCCCC(=O)C1=CSc1ccccc1Br`, the result in the data set on CNE [1] and with C6661 [2] was Active.
In the case of `O=C1CCCCC(=O)C1=CSc1ccccc1F`, the outcome in the data set on CNE [1] and with C6661 [2] was Active.
In the case of `O=C1CCCCC(=O)C1=CSc1ccccc1C(F)(F)F`, the outcome in the data set on C6661 [3], with C6661 [11], in the data set with C6661 [16], in the data set on CNE [24], in the data set with C6661 [29] and in the data set on C6661 [30] was inactive. For the same molecule, the outcome in the data set on C6661 [31] was inactive. Besides, the Activity with C6661 [4] is 89%; with C6661 [5], 63%; in the data set on C6661 [7], 22%; in the data set with C6661 [8] it was 23.45%; in the data set on C6661 [9] it was 61.78%; in the data set with C6661 [10], “Dose-dependent effect”. For the same molecule, the Activity in the data set with C6661 [13] was 46.24%; in the data set on CNE [15], 24%; with C6661 [17], “Dose-dependent effect”; in the data set with C6661 [19] it was 11%; with C6661 [22], 10.54%; in the data set with C6661 [25] it was 2.76 - 69.43%. The Activity in the data set with C6661 [26] is 99%; in data set [27], “Non-Toxic”; in the data set with C6661 [28] it was “Dose-dependent effect”; in the data set on C6661 [32] it was 26%. The outcome with C6661 [6], with CNE [12], with C6661 [14], in the data set with C6661 [18], in the data set with C6661 [20] and with C6661 [21] was Active. For the same molecule, the outcome in the data set with C6661 [23], with CNE [1] and in the data set on C6661 [2] was Active.
Turning to `O=C1CCCCC(=O)C1=CSc1ccccc1[N+](=O)[O-]`, the outcome with CNE [1] and with C6661 [2] was Active.
Turning to `O=C1CCCCC(=O)C1=CSc1ccccc1Cl`, the result in the data set with CNE [1] and in the data set with C6661 [2] was Active.
With `N#Cc1ccccc1SC=C1C(=O)CCCCC1=O`, the outcome in the data set on CNE [1] and in the data set on C6661 [2] was Active.

For the origin of these results see ChEMBL document CHEMBL4340515, “Dione-thiophene conjugate inhibits proliferation and metastasis of nasopharyngeal carcinoma cells through calcium binding protein-P down-regulation” (Eur J Med Chem, 2019).
